The results in this text go back to US12281084B2, “Acetyl-CoA synthetase 2 (ACSS2) inhibitors and methods using same” (The Wistar Institute, priority 2019, dated 2025).

“Also recorded” adds a separate entry of the source.

The subject of one assay is Brpkp110 tumors. Put plainly: Brpkp110 tumor xenograft growth in NSG mice. Type of assay: in vivo, mouse. The following applies: daily intraperitoneal injection for two weeks, 100 mg/kg (FIG. 5E). The protocol: (§1) For BT474 mouse xenograft studies 5-6 week old female NSG […] were anesthetized and one 17β-estradiol 60 day release pellet (Innovative Research of America Cat. No. SE-121) was injected subcutaneously via 10 gauge precision trochar into the lateral side of the neck between the ear and shoulder. 24 hours later 10^5 BT474 luciferase positive cells in 100 μl PBS:matrigel (growth factor reduced) were injected subcutaneously into the hind limb. For A7C11 and Brpkp110 xenografts, 5×10^5 cells in 100 μl PBS:Matrigel (growth factor reduced Corning Cat. No. 356231) were subcutaneously injected into the hindlimb of 5-6 week old female NSG mice […]. Following tumor establishment in all groups, mice were randomized and treated intraperitoneally (IP) daily with vehicle (10% DMSO, 10% absolute ethanol, 20% solutol, 60% water containing 0.5% Tween20) or 100 mg/kg VY-3-135 as indicated in the figure legend. Tumors were measured thrice weekly via caliper measurement and tumor volume calculated as (L×W^2)/2 (where L is the longer of the 2 measurements). At the study conclusion all tumors were resected and processed fresh or flash frozen in liquid nitrogen and stored at −80° C. for downstream analysis.
Tumor bearing mice were given daily intraperitoneal injection of VY-3-135 for two weeks. […]

Another assay relates to sgACSS2 Brpkp110 tumors. Nature of the assay: sgACSS2 (Acss2 knockout) Brpkp110 tumor xenograft growth in NSG mice. The class given is in vivo, mouse. The following applies: tumors lacking ACSS2 expression (FIG. 5F).
Text: CRISPR-Cas9 pools of Brpkp110 and A7C11 were generated using single guide RNAs against exon 1 in mouse Acss2. Cas9 and guide RNAs were introduced into Brpkp110 and A7C11 cell by lentiviral infection. Briefly, HEK293T cells were transfected (Lipofectamine 2000) with psPAX2, pVSV-G, and pLentiCRISPRV2-blast containing a single guide RNA cloned into the BsmBI site (GE Healthcare). Transduced pools of Brkp110 and A7C11 cells were selected using blasticidin S.
as §1, with “Following tumor establishment in all groups, mice were randomized and treated intraperitoneally (IP) daily with vehicle (10% DMSO, 10% absolute ethanol, 20% solutol, 60% water containing 0.5% Tween20) or 100 mg/kg VY-3-135 as indicated in the figure legend.” left out, “At the study conclusion all tumors were resected and processed fresh or flash frozen in liquid nitrogen and stored at −80° C. for downstream analysis.” left out

For assay [1], the system named is BT474 tumors. Put plainly: BT474 tumor xenograft growth in NSG mice. Type of assay: in vivo, mouse. Here is the method: as §1, with “At the study conclusion all tumors were resected and processed fresh or flash frozen in liquid nitrogen and stored at −80° C. for downstream analysis.” left out
Mice bearing luciferase positive tumors were injected IP with 150 mg/kg sterile filtered D-luciferin potassium salt (Gold Bio Cat. No. LUCK-1G). […] Images were analyzed using Living Image Software (Perkin Elmer). […]

For assay [2], the system named is BT474 tumors. Put plainly: QuantSeq 3' mRNA sequencing of BT474 tumor tissue. Type of assay: in vivo, mouse. The following applies: vehicle vs treated mice. The protocol: QuantSeq 3′ mRNA sequencing of BT474 tumor tissue from vehicle and VY-3-135 treated mice was performed. Similar to in vitro results in FIG. 3, the effects of VY-3-135 on gene transcription in vivo were minimal. […] Furthermore, of the 248 differentially regulated genes only 7 changed by more than 2-fold and none by more than 2.5-fold (FIGS. 14A-14B).

Assay [3] has as its system BT474 tumors. Put plainly: In vivo 13C2-acetate tracing in BT474 tumors. The arrangement: species or system mouse. The protocol: All metabolomic experiments were performed in serum-like modified Eagle's medium (SMEM). SMEM contains 54 different nutrients that are found in the bloodstream at concentrations that are physiologically relevant to humans. SMEM was supplemented with 10% or 1% fetal bovine serum (FBS; Life Technologies). Cells were grown in normoxia (atmospheric oxygen) or hypoxia (1% oxygen) while being incubated in uniformly labeled ^13C2-acetate (0.100 mM; Cambridge Isotope Laboratories). Lengths of incubation are described in the figure legends. For extraction of metabolites from cultured cells, SMEM medium was aspirated and cells were washed once in ice-cold PBS. Metabolites were extracted by adding a solution of LC-MS grade methanol/acetonitrile/water (5:3:2) to the well. Plates were incubated at 4° C. for 5 minutes on a rocker and then the extraction solution was collected. The metabolite extract was cleared by centrifugation at 15,000×g for 10 minutes at 4° C. Supernatants were transferred to LC-MS silanized glass vials with PTFE caps and either run immediately on the LC-MS or stored at −80° C. […]
LC-MS analysis was performed on a Q Exactive Hybrid Quadrupole-Orbitrap HF-X MS (ThermoFisher Scientific) equipped with a HESI II probe and coupled to a Vanquish Horizon UHPLC system (ThermoFisher Scientific). […] Samples were analyzed in full MS scan with polarity switching at scan range 65 to 975 m/z; 120,000 resolution; automated gain control (AGC) target of 1E6; and maximum injection time (max IT) of 100 milliseconds. Identification and quantitation of metabolites was performed using an annotated compound library and TraceFinder 4.1 software. […]
On-target activity of VY-3-135 in the tumor was probed. […] Tumor lipid extracts were saponified and the resulting fatty acids were analyzed by LC-MS. Likewise, polar metabolites were extracted from matching tumor samples and analyzed by LC-MS. […] Isotopologs ≥M+10 were not detected in tumors from VY-3-135 treated mice.

For the compound `CCn1c(C(O)(c2ccccc2)c2ccccc2)nc2ccc(C(=O)NC[C@@H](C)O)cc21` [VY-3-135, (R)-1-ethyl-2-(hydroxydiphenylmethyl)-N-(2-hydroxypropyl)-1H-benzo[d]imidazole-6-carboxamide], the Brpkp110 tumor growth result in the assay with Brpkp110 tumors is “causes a significant decrease in Brpkp110 tumor growth; also recorded: caused significant reduction in Brpkp110 tumor growth”. For the same compound, in the assay on sgACSS2 Brpkp110 tumors, the “sgACSS2 Brpkp110 tumor growth” value is recorded as “did not further affect the growth of Brpkp110 sgACSS2 tumors; also recorded: no further effect on tumor growth”. Also, in the assay with BT474 tumors [1] (BT474 luciferase tumors, VY-3-135 treated group), the “tumor palpability / regression at end of regimen” value is on record as “two of the tumors in VY-3-135 treated group were not palpable by the end of the regimen, with one tumor fully regressing”. Also, the BT474 tumor growth entry in the assay on BT474 tumors [1] (VY-3-135 100 mg/kg IP daily, two weeks of treatment (FIG. 6A), 100 mg/kg) is “causes a significant decrease in BT474+luciferase tumor growth; also recorded: completely abrogated tumor growth”. In addition, the “effects on gene transcription in vivo” value in the assay on BT474 tumors [2] is reported as “minimal”. In the assay on BT474 tumors [3] (BT474 tumors (FIG. 6D)), the “13C2-acetate labeling of citrate in tumors” value was “no effect was observed”. Besides, the “palmitate isotopologs ≥M+10 in tumors” value with BT474 tumors [3] (BT474 tumors from treated mice) was “not detected”. Moreover, the “13C labeling of palmitate in tumors” value in the assay with BT474 tumors [3] (BT474 tumors, 13C2-acetate in drinking water 48 hours (FIG. 6C)) is recorded as “caused a significant decrease in the ^13C labeling of palmitate”.
